Measurements taken from patent US20220193241A1, “AGENT TARGETING DOUBLE-MEMBRANE ORGANELLE DNA” (CHIBA-PREFECTURE, priority 2019, published 2022).

Tests used:
[1] = tested on: 3243G High cells; test: Cell death induction: DAPI nuclear staining and cleaved caspase-3 immunostaining; assay type: cell-based, human; conditions: 25 μM, 5 days
Protocol: In order to confirm that the suppression of cell proliferation by CCC020-TPP was the induction of cell death, the 3243G High cells were inoculated at 5×10^4 cells/dish to a 35 mm glass base dish (IWAKI), cultured for 24 hours, and then treated with CCC020-TPP (final concentration: 25 μM). The cells thus supplemented with CCC020-TPP were further cultured for 5 days and fixed with 4% PFA/PBS at room temperature for 30 minutes. The cells thus fixed were washed with PBS and blocked with TBST containing 5% normal goat serum for 1 hour. After the completion of blocking, the cells were reacted for 1 hour with a primary antibody diluted with TBST, i.e., a rabbit anti-cleaved caspase-3 antibody (for the cells treated for 5 days: Cell Signaling Technology, Inc.) diluted at 1:200.

[2] = tested on: HeEB1 cells; test: mRNA expression of cell cycle arrest- and apoptosis-related genes by real-time PCR; assay type: cell-based, human; conditions: 25 μM, 3 days
Protocol: (§1) In order to elucidate the mechanism of the cell proliferation suppressive effect by CCC020-TPP administration, expression analysis at the mRNA level was conducted by real-time PCR. The mtDNA mutation cell line (3243G High) and the normal cell line (HeEB1) were inoculated at 5×10^5 cells/dish and 1×10^5 cells/dish, respectively, to 6 cm dishes (Falcon), cultured for 24 hours, and then treated with CCC020-TPP (final concentration: 25 μM). After further culture for 3 days, RNA was extracted using RNeasy Plus Mini Kit (QIAGEN) according to the instruction manual. The yield of the RNA thus extracted was measured using NANO DROP 2000™ (Thermo Fisher Scientific). The reverse-transcription reaction of RNA was performed with 500 ng of RNA per sample using SuperScript VILO Master Mix (Invitrogen) to synthesize cDNA. The synthesized cDNA was diluted 5-fold with ultrapure water.
(§2) Real-time PCR employed Power SYBR Green Master Mix (Applied Biosystems), and cDNA sample preparation, PCR reaction and analysis were conducted. The primers and reaction conditions used are shown below.
(§3) The PCR reaction conditions were as follows.

[3] = tested on: 3243G High cells; test: as above; assay type: cell-based, human; conditions: 25 μM, 3 days
Protocol: as §1, §2, §3

[4] = tested on: 3243G Low cells; test: WST assay of cell proliferation with morphological observation; assay type: cell-based, human; conditions: 5 days
Protocol: (§4) The proliferation suppressive effect of CCC020-TPP on cells having the mitochondrial A3243G mutation was evaluated by WST assay. Both a mitochondrial DNA mutated cell line and a normal cell line were inoculated at 1×10^3 cells/well to 96-well plates (Thermo Fisher Scientific), cultured for 24 hours, and then treated with CCC020-TPP (final concentration: 0, 0.1, 1, 10, 20, and 50 μM). The cells were further cultured for 5 days and then morphologically observed under optical microscope IX71 (OLYMPUS, Tokyo, Japan). Then, cell survival rates were calculated using Cell counting kit-8 (DOJINDO, Kumamoto, Japan) according to the instruction manual. DMSO (FUJIFILM Wako Pure Chemical Corp.) (final concentration: 1%) was added as a control to cells.
(§5) IC50 was calculated according to the following expression:
(§6) IC50=10(LOG(A/B)×(50−C)/(D−C)+LOG(B)) • A: higher concentration across the concentration at the cell survival rate of 50% • B: lower concentration across the concentration at the cell survival rate of 50% • C: inhibition rate at the lower concentration across the concentration at the cell survival rate of 50% • D: inhibition rate at the higher concentration across the concentration at the cell survival rate of 50%

[5] = tested on: 3243G High cells; test: as above; assay type: cell-based, human; conditions: 5 days
Protocol: as §4, §5, §6

[6] = tested on: HeEB1 (HeLamtHeLa) cells; test: as above; assay type: cell-based, human; conditions: 5 days
Protocol: as §4, §5, §6

[7] = tested on: ME180; test: WST cell proliferation assay of library compounds; assay type: cell-based; conditions: Homo sapiens, ME-180, 120 h; ME180, 5 days
From the text: (§7) Compound CCCh560-TPP with a decacyclic structure targeting the A8860G polymorphism of mitochondrial gene ATP6 found in human populations, not acquired mitochondrial mutations in somatic cells, was studied for whether the suppression of cell proliferation was also found by 5-day treatment with the compound for the mitochondrial DNA polymorphism in cancer cell lines C33A, HeLa, Siha, Caski, and ME180 having this polymorphism in homoplasmy and human nontumor skin-derived fibroblast HDF cells. For this purpose, cell proliferation assay was conducted in the same manner as in Example 1. 1000 cells were inoculated to a 96-well plate, and CCCh560-TPP was administered at 0.5, 1, 5, 10, and 20 μM. 5 days later, WST assay was conducted.

[8] = tested on: Siha; test: WST cell proliferation assay of library compounds; assay type: cell-based; conditions: Homo sapiens, 120 h, 5 days
From the text: as §7

[9] = tested on: Caski; test: WST cell proliferation assay of library compounds; assay type: cell-based; conditions: Homo sapiens, Ca-Ski, 120 h, 5 days
From the text: as §7

[10] = tested on: HDF (human skin fibroblasts); test: WST cell proliferation assay of library compounds; assay type: cell-based; conditions: 5 days
From the text: as §7

[11] = tested on: HeLa cells; test: WST cell proliferation assay of library compounds; assay type: cell-based; conditions: Homo sapiens, 120 h, 5 days
Protocol: (§8) This compound can recognize the T4216C mutation of mitochondrial ND1 gene, and a uterine cervical cancer cell line C33A has this mutation. Cell proliferation assay with wild-type HeLa cells, which is also a uterine cervical cancer cell line, was conducted in the same manner as in Example 1. 1000 cells were inoculated to a 96-well plate, and CCC1283-TPP was administered at 0.5, 1, 5, 10, and 20 μM. 5 days later, WST assay was conducted.
as §8, with “CCCh531-TPP” for “CCC1283-TPP”
as §7

[12] = tested on: C33A; test: WST cell proliferation assay of library compounds; assay type: cell-based; conditions: Homo sapiens, C-33-A, 120 h, 5 days
Protocol: as §8
as §8, with “CCCh531-TPP” for “CCC1283-TPP”
as §7

| IC50 [11] [µM] | Compound | cleaved caspase-3-positive cells (apoptosis) [1] | cells with fragmentation of the nucleus ([1]; DAPI) | expression of P21, BAX and MCL1 [2] | expression of antiapoptosis-related gene MCL1 [3] | expression of cell cycle arrest-related gene P21 [3] | expression of proapoptosis-related gene BAX [3] | suppression of cell proliferation (WST) ([4]; 0.1-50 μM) | cell morphology under optical microscope [4] | suppression of cell proliferation (WST) ([5]; 0.1-50 μM) | cell morphology under optical microscope [5] | suppression of cell proliferation (WST) ([6]; 0.1-50 μM) | cell morphology under optical microscope [6] | IC50 [7] [µM] | IC50 [8] [µM] | IC50 [9] [µM] | suppression of proliferation (WST) ([10]; 0.5-20 μM) | IC50 (WST) [10] | IC50 [12] [µM] |
| --- | --- | --- | --- | --- | --- | --- | --- | --- | --- | --- | --- | --- | --- | --- | --- | --- | --- | --- | --- |
|  | CN(C)CCCNC(=O)CCNC(=O)c1cc(NC(=O)c2cc(NC(=O)CCNC(=O)c3nc(NC(=O)c4nc(NC(=O)c5nc(NC(=O)CCNC(=O)CCCC[P+](c6ccccc6)(c6ccccc6)c6ccccc6)cn5C)cn4C)cn3C)cn2C)cn1C [CCC020-TPP] | approximately half | approximately 60% | no change in expression was found | significantly decreased | significantly increased | significantly increased | cell proliferation suppressive effect was markedly found | no morphological change in cells was found | cell proliferation suppressive effect was markedly found | cells that seemed to undergo apoptosis were markedly observed | cell proliferation was not suppressed | no morphological change in cells was found |  |  |  |  |  |  |
| 7.75 | CN(C)CCCNC(=O)CCNC(=O)c1cc(NC(=O)c2cc(NC(=O)CCNC(=O)c3nc(NC(=O)c4cc(NC(=O)c5nc(NC(=O)CCCNC(=O)c6cc(NC(=O)c7nc(NC(=O)CCNC(=O)c8nc(NC(=O)c9nc(NC(=O)c%10nc(NC(=O)CCNC(=O)CCCC[P+](c%11ccccc%11)(c%11ccccc%11)c%11ccccc%11)cn%10C)cn9C)cn8C)cn7C)cn6C)cn5C)cn4C)cn3C)cn2C)cn1C [CCCh560-TPP] |  |  |  |  |  |  |  |  |  |  |  |  | 3.24 | 12.6 | 5.5 | tendency to suppress the proliferation | incalculable | 1.65 |
